Test results: patent US9211310B2, “Use of a Chinese medicine composition in preparing medicaments for treating secondary prevention of myocardial infarction” (TASLY PHARMACEUTICAL GROUP CO., LTD, priority 2010, dated 2015)

Test system: patients after acute myocardial infarction
Experiment: Life quality, Seattle Angina Questionnaire (SAQ), same clinical trial
Format: in vivo, human
Conditions: FAS
Excerpt: 3508 patients who were in accordance with the diagnostic standards of AMI for 28 days to 2 years and differentiated as Qi deficiency and blood stagnation syndrome by TCM were studied. 0.5 g Chinese medicine composition prepared by the method of EXAMPLE 1 (Coded as QSYQ) was administrated half an hour after meal, 3 times per day.
There were 19 questions in the Seattle angina questionnaire (SAQ), including 5 parts: physical limitation (PL), anginal stability (AS), anginal frequency (AF), treatment satisfaction (TS) and disease perception (DP). After being given necessary explanation by doctors, the questions were answered independently by patients.
They included the overall survival time, angina pectoris score, TCM symptom score and life quality score, where angina pectoris score, TCM symptom score and life quality score were evaluated at randomization, in 1st, 3rd, 6th, 9th, 12th month after treatment and 18th month after follow-up.
All evaluation results of SAQ were described during the period of observation, and Wilcoxon rank sum test was used for inter-group comparison.
The evaluation results in the SAQ were depicted in different observations, and inter-group comparison was tested by Wilcoxon Rank-sum test.

Question: What does the source list for `CC(=O)Oc1ccccc1C(=O)O` [Control group, aspirine]?
Answer: SAQ Question 1-1 Other reasons, percent of patients (9 months after treatment): (0.17%); SAQ Question 1-1 Severely limited, number of patients (9 months after treatment): 1; SAQ Question 1-1 Severely limited, percent of patients (9 months after treatment): (0.06%); SAQ Question 1-1 Slightly limited, number of patients (9 months after treatment): 67; SAQ Question 1-1 Slightly limited, percent of patients (9 months after treatment): (3.84%); SAQ Question 1-2 Mildly limited, number of patients (9 months after treatment): 29; SAQ Question 1-2 Mildly limited, percent of patients (9 months after treatment): (1.66%); SAQ Question 1-2 Moderately limited, number of patients (9 months after treatment): 7; SAQ Question 1-2 Moderately limited, percent of patients (9 months after treatment): (0.40%); SAQ Question 1-2 Not limited, number of patients (9 months after treatment): 1631; SAQ Question 1-2 Not limited, percent of patients (9 months after treatment): (93.52%); SAQ Question 1-2 Other reasons, number of patients (9 months after treatment): 5; SAQ Question 1-2 Other reasons, percent of patients (9 months after treatment): (0.29%); SAQ Question 1-2 Severely limited, number of patients (9 months after treatment): 0; SAQ Question 1-2 Severely limited, percent of patients (9 months after treatment): (0.00%); SAQ Question 1-2 Slightly limited, number of patients (9 months after treatment): 72; SAQ Question 1-2 Slightly limited, percent of patients (9 months after treatment): (4.13%); SAQ Question 1-6: Mildly limited, patients (%) (9 months after treatment): (15.79%); SAQ Question 1-6: Moderately limited, patients (%) (9 months after treatment): (11.08%); SAQ Question 1-6: Not limited, patients (%) (9 months after treatment): (37.31%); SAQ Question 1-6: Other reasons, patients (%) (9 months after treatment): (0.86%); SAQ Question 1-6: Severely limited, patients (%) (9 months after treatment): (2.93%); SAQ Question 1-6: Slightly limited, patients (%) (9 months after treatment): (32.03%); SAQ Question 1-7: Mildly limited, patients (%) (9 months after treatment): (21.69%); SAQ Question 1-7: Moderately limited, patients (%) (9 months after treatment): (11.86%); SAQ Question 1-7: Not limited, patients (%) (9 months after treatment): (17.87%); SAQ Question 1-7: Other reasons, patients (%) (9 months after treatment): (3.07%); SAQ Question 1-7: Severely limited, patients (%) (9 months after treatment): (14.29%); SAQ Question 1-7: Slightly limited, patients (%) (9 months after treatment): (31.23%); SAQ Question 1-8: Mildly limited, patients (%) (9 months after treatment): (24.55%); SAQ Question 1-8: Moderately limited, patients (%) (9 months after treatment): (15.03%); SAQ Question 1-8: Not limited, patients (%) (9 months after treatment): (11.96%); SAQ Question 1-8: Other limited, patients (%) (9 months after treatment): (3.60%); SAQ Question 1-8: Severely limited, patients (%) (9 months after treatment): (17.93%); SAQ Question 1-8: Slightly limited, patients (%) (9 months after treatment): (26.93%); 8th question: Dissatisfied, patients (%) (12 months after treatment): (0.29%); 8th question: Highly satisfied, patients (%) (12 months after treatment): (25.29%); 8th question: Mostly dissatisfied, patients (%) (12 months after treatment): (2.01%); 8th question: Mostly satisfied, patients (%) (12 months after treatment): (60.09%); 8th question: Partly satisfied, patients (%) (12 months after treatment): (12.33%); 9th question: Few, patients (%) (12 months after treatment): (39.74%); 9th question: Mild, patients (%) (12 months after treatment): (30.56%); 9th question: Moderate, patients (%) (12 months after treatment): (6.82%); 9th question: Severe, patients (%) (12 months after treatment): (0.97%); 9th question: Uneffective, patients (%) (12 months after treatment): (21.90%); 10th question: Dissatisfied, patients (%) (12 months after treatment): (19.50%); 10th question: Highly satisfied, patients (%) (12 months after treatment): (7.57%); 10th question: Mostly dissatisfied, patients (%) (12 months after treatment): (19.21%); 10th question: Mostly satisfied, patients (%) (12 months after treatment): (30.85%); 10th question: Partly dissatisfied, patients (%) (12 months after treatment): (22.88%); 11th question: Continuously worried, patients (%) (12 months after treatment): (3.15%); 11th question: No worried, patients (%) (12 months after treatment): (7.11%); 11th question: Occasionally worried, patients (%) (12 months after treatment): (40.60%); 11th question: Often worried, patients (%) (12 months after treatment): (9.23%); 11th question: Seldom worried, patients (%) (12 months after treatment): (39.91%); SAQ 4th question, 1-2 times per week: % of patients (12 months after treatment): (10.61%); SAQ 4th question, 1-2 times per week: number of patients (12 months after treatment): 185; SAQ 4th question, 1-3 times per week: % of patients (12 months after treatment): (4.24%); SAQ 4th question, 1-3 times per week: number of patients (12 months after treatment): 74; SAQ 4th question, <1 time per week: % of patients (12 months after treatment): (16.51%); SAQ 4th question, <1 time per week: number of patients (12 months after treatment): 288; SAQ 4th question, Not used: % of patients (12 months after treatment): (64.56%); SAQ 4th question, Not used: number of patients (12 months after treatment): 1126; SAQ 4th question, ≧3 times per week: % of patients (12 months after treatment): (3.96%); SAQ 4th question, ≧3 times per week: number of patients (12 months after treatment): 69; SAQ 4th question, ≧4 times per day: % of patients (12 months after treatment): (0.11%); SAQ 4th question, ≧4 times per day: number of patients (12 months after treatment): 2; SAQ 5th question, 1-2 times per week: % of patients (12 months after treatment): (32.00%); SAQ 5th question, 1-2 times per week: number of patients (12 months after treatment): 558; SAQ 5th question, 1-3 times per day: % of patients (12 months after treatment): (6.14%); SAQ 5th question, 1-3 times per day: number of patients (12 months after treatment): 107; SAQ 5th question, <1 time per week: % of patients (12 months after treatment): (29.93%); SAQ 5th question, <1 time per week: number of patients (12 months after treatment): 522; SAQ 5th question, No onset: % of patients (12 months after treatment): (5.28%); SAQ 5th question, No onset: number of patients (12 months after treatment): 92; SAQ 5th question, ≧3 times per week: % of patients (12 months after treatment): (25.86%); SAQ 5th question, ≧3 times per week: number of patients (12 months after treatment): 451
